# According to publication PMC7689250, “Synthetic Peptide Libraries Designed From a Minimal Alpha-Helical Domain of AS-48-Bacteriocin Homologs Exhibit Potent Antibacterial Activity” (Frontiers in Microbiology, 2020):
# Read-outs that look alike come from different tables or passages of the source. Residues, ends and D or L forms follow the SMILES beside them.
# Key:
# E. coli strain BL21 = test: Propidium iodide uptake by FACS; type: cell-based, Escherichia coli; settings: 2, 4, 8, 16 or 32 μM peptide in saline, 1 h, ambient temperature, 1 × 10^4 events
# Procedure: For determination of bacterial cell death via membrane disruption, bacterial cells were subjected to propidium iodide (PI) uptake and quantified using fluorescence-activated cell sorting (FACS). E. coli strain BL21 were first diluted to a OD 600 of 1.0. Cells were washed three times in 0.85% NaCl (saline) solution and resuspended in either 1.5 mL of either saline, 70% isopropyl alcohol, or peptide diluted to either 2, 4, 8, 16 or 32 μM in saline for 1 h at ambient temperature. Following incubation, cells were pelleted and resuspended in 1 mL of saline with 1.5 μL/mL propidium iodide and incubated in the dark for 15 min. The samples were washed again with saline three times and run through a Beckman Coulter FC500 flow cytometer. The FL3 detector, using the propidium iodine PE-Alexa Fluor 610 emission filter, was used to sort the cells. 1 × 10^4 events were collected for each sample run.
# [1] = test system: GFP-expressing E. coli strain BL21; test: Live imaging of GFP leakage; type: cell-based, Escherichia coli; settings: 16 μM peptide, 8 h, 37°C, images every 10 min
# Procedure: To observe bacterial cell death in the presence of peptide in real time, fluorescence microscopy was employed using GFP-expressing E. coli strain BL21. MIC assays were conducted against BL21-GFP to determine the peptide concentration used for microscopy experiments. The peptide was suspended in PBS and added to diluted bacterial cells. GFP-expressing E. coli in the presence of peptide were imaged on the Eclipse Ti-E inverted microscope (Nikon) using GFP and DIC channels for 8 h at 37°C, with images taken every 10 min ([Fields et al., 2020]). Syn-xiamencin-2, a peptide with no detectable antimicrobial activity below 128 μM was also evaluated as a negative peptide candidate control.
# E. coli (BL21) = type: cell-based, Escherichia coli
# Outline: (§1)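 MIC in Mueller-Hinton broth with 1 × 10^6 CFU/mL bacteria, overnight cultures grown first in LB (E. coli, P. aeruginosa, S. aureus) or Todd-Hewitt (S. pyogenes); growth read as OD 600. Library members screened at half the parent peptide MIC; MBC as lowest concentration giving no colonies after plating MIC wells, 37°C overnight.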
# S. pyogenes (M1) = type: cell-based, Streptococcus pyogenes; settings: for MBC: M1; for MIC: M1, 16 h
# Outline: as §1
# sheep erythrocytes = type: cell-based; settings: red cells of sheep, 1 h
# Outline: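 Washed defibrinated sheep blood, diluted 1:25 in PBS, incubated 1 h at 37 °C with peptide at the MIC-assay concentrations (sample:blood 1:10). Haemoglobin release read as supernatant absorbance at 450 nm; percent haemolysis normalised to PBS and 10% Triton controls.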
# S. aureus (USA300) = type: cell-based, Staphylococcus aureus; settings: for MBC: USA300; for MIC: USA300, 16 h
# Outline: as §1
# P. aeruginosa (PAO1) = type: cell-based, Pseudomonas aeruginosa; settings: for MBC: PAO1
# Outline: as §1
# [2] = test system: human keratinocyte cell line (HaCaT); test: HaCaT cytotoxicity, ethidium homodimer assay; type: cell-based; settings: 16 h, 37°C, DMEM + 10% FBS, normalised to saponin, triplicate
# Procedure: To assess cytotoxicity of optimized peptides in mammalian cells, an immortalized human keratinocyte cell line (HaCaT) was used. Cells were grown to 80% confluency in 24-well culture dishes and washed with PBS (Thermo Fisher). […] After incubation, the cells were washed with sterile PBS, followed by a covered incubation with 4 μM ethidium homodimer (Molecular Probes) for 30 min at room temperature. Fluorescence was measured using the Synergy H1 Microplate Reader set to 528 nm excitation, 617 nm emission, and a cutoff value of 590 nm. Saponin (0.1% wt/vol, Sigma) was added to each well followed by a covered incubation for 20 min at room temperature, followed by another measurement on the Synergy H1 Microplate Reader using the same settings to normalize readings to the number of cells per well and determine the percent cytotoxicity.
# [3] = E. coli BL21, running text b43, unit printed nm
SMILES,PI positive cells (E. coli strain BL21),GFP leakage / change in fluorescence [1],MIC (E. coli (BL21); BL21) [µM],"MIC (E. coli (BL21); BL21, 16 h) [µM]",MBC (E. coli (BL21); [3]),MIC (E. coli (BL21); [3]),MBC (S. pyogenes (M1)) [µM],MIC (S. pyogenes (M1)) [µM],Percent Hemolysis (sheep erythrocytes) [%],MBC (S. aureus (USA300)) [µM],MIC (S. aureus (USA300)) [µM],MBC (P. aeruginosa (PAO1)) [µM],"MIC (P. aeruginosa (PAO1); PAO1, 16 h) [µM]",MBC (E. coli (BL21); BL21) [µM],concentration at which peptide is cytotoxic [2] [µM],"MIC (P. aeruginosa (PAO1); P. aeruginosa PAO1, broth microdilution, Mueller-Hinton broth, 1 × 10^6 CFU/mL, 16 h, OD600, triplicate) [µM]",MIC (E. coli (BL21); E. coli BL21) [µM]
"CC(C)O [Isopropyl alcohol, isopropyl alcohol, reference compound]",large peak within the PI florescence range,–,–,–,–,–,–,–,–,–,–,–,–,–,–,–,–
CC[C@H](C)[C@H](NC(=O)[C@H](CCCCN)NC(=O)[C@H](CCCCN)NC(=O)CNC(=O)[C@H](CCC(=O)O)NC(=O)[C@H](CCC(N)=O)NC(=O)[C@@H](NC(=O)[C@@H](NC(=O)[C@H](CCCCN)NC(=O)[C@H](CCCCN)NC(=O)[C@H](CC(C)C)NC(=O)[C@H](CCCNC(=N)N)NC(=O)[C@H](CCC(N)=O)NC(=O)[C@H](Cc1ccccc1)NC(=O)[C@@H](NC(=O)[C@H](CCCCN)NC(=O)[C@H](CCC(=O)O)NC(=O)[C@@H](NC(=O)[C@H](Cc1c[nH]c2ccccc12)NC(=O)[C@H](C)N)[C@@H](C)O)[C@@H](C)CC)[C@@H](C)O)[C@@H](C)CC)C(=O)N[C@@H](C)C(=O)N[C@@H](CCCCN)C(=O)N[C@@H](CCCNC(=N)N)C(=O)N[C@@H](C)C(=O)N[C@@H](Cc1c[nH]c2ccccc12)C(=O)O [Syn-larvacin-39] (H-AWTEKIFQRLKKTIQEGKKIAKRAW-OH; N-terminus and C-terminus assumed),–,significant decrease in fluorescence,0.0156,<0.0156,below 15.6 nM,below 15.6 nM,4,2,14.4,4,1,64,16,–,–,–,–
CC[C@H](C)[C@H](NC(=O)[C@H](CCCNC(=N)N)NC(=O)[C@H](CCC(N)=O)NC(=O)[C@@H](NC(=O)[C@H](Cc1c[nH]c2ccccc12)NC(=O)[C@H](C)N)[C@@H](C)O)C(=O)N[C@@H](CCCCN)C(=O)N[C@@H](C)C(=O)N[C@@H](Cc1ccc(O)cc1)C(=O)N[C@@H](CC(C)C)C(=O)N[C@@H](CCCNC(=N)N)C(=O)N[C@@H](CCCNC(=N)N)C(=O)N[C@@H](CCC(=O)O)C(=O)N[C@H](C(=O)N[C@@H](CCCNC(=N)N)C(=O)N[C@@H](CCCCN)C(=O)N[C@@H](CCCNC(=N)N)C(=O)NCC(=O)N[C@@H](CCCNC(=N)N)C(=O)N[C@@H](CCCCN)C(=O)N[C@@H](C)C(=O)N[C@H](C(=O)N[C@H](C(=O)N[C@@H](C)C(=O)N[C@@H](Cc1c[nH]c2ccccc12)C(=O)O)[C@@H](C)CC)C(C)C)[C@@H](C)CC [Syn-sordellicin-19] (H-AWTQRIKAYLRREIRKRGRKAVIAW-OH; N-terminus and C-terminus assumed),–,–,–,2,–,–,2,2,–,>128,>128,16,8,2,≥ 64,–,–
CC[C@H](C)[C@H](NC(=O)[C@H](CCCNC(=N)N)NC(=O)[C@H](CCC(N)=O)NC(=O)[C@H](Cc1c[nH]c2ccccc12)NC(=O)CNC(=O)[C@H](C)N)C(=O)N[C@@H](CCCCN)C(=O)N[C@@H](C)C(=O)N[C@@H](Cc1ccc(O)cc1)C(=O)N[C@@H](CC(C)C)C(=O)N[C@@H](CCCNC(=N)N)C(=O)N[C@@H](CCCNC(=N)N)C(=O)N[C@@H](CCC(=O)O)C(=O)N[C@H](C(=O)N[C@@H](CCCNC(=N)N)C(=O)N[C@@H](CCCCN)C(=O)N[C@@H](CCCNC(=N)N)C(=O)NCC(=O)N[C@@H](CCCNC(=N)N)C(=O)N[C@@H](CCCCN)C(=O)N[C@@H](C)C(=O)N[C@H](C(=O)N[C@H](C(=O)N[C@@H](C)C(=O)N[C@@H](Cc1c[nH]c2ccccc12)C(=O)O)[C@@H](C)CC)C(C)C)[C@@H](C)CC [Syn-sordellicin-43] (H-AGWQRIKAYLRREIRKRGRKAVIAW-OH; N-terminus and C-terminus assumed),–,significant decrease in fluorescence,–,1,–,–,4,2,11.2,32,32,4,–,1,–,2,–
CC[C@H](C)[C@H](NC(=O)[C@H](CCCNC(=N)N)NC(=O)CNC(=O)[C@@H](NC(=O)[C@H](CCCCN)NC(=O)[C@H](CCCNC(=N)N)NC(=O)[C@@H](NC(=O)[C@H](Cc1ccc(O)cc1)NC(=O)[C@H](CCCNC(=N)N)NC(=O)[C@H](CCCNC(=N)N)NC(=O)[C@H](CC(C)C)NC(=O)[C@H](CCC(=O)O)NC(=O)[C@H](CCCCN)NC(=O)[C@H](C)NC(=O)[C@@H](NC(=O)[C@H](CCCNC(=N)N)NC(=O)[C@H](CC(N)=O)NC(=O)[C@@H](NC(=O)CNC(=O)[C@H](C)N)[C@@H](C)O)[C@@H](C)CC)[C@@H](C)CC)C(C)C)C(=O)N[C@@H](C)C(=O)N[C@@H](CCCNC(=N)N)C(=O)N[C@@H](CCCCN)C(=O)N[C@@H](Cc1c[nH]c2ccccc12)C(=O)N[C@@H](Cc1c[nH]c2ccccc12)C(=O)O [Syn-sordellicin-64] (H-AGTNRIAKELRRYIRKVGRIARKWW-OH; N-terminus and C-terminus assumed),–,–,–,–,–,–,1,1,18.8,8,8,8,8,0.5,≥ 32,–,0.25
CC[C@H](C)[C@H](NC(=O)[C@H](CCCNC(=N)N)NC(=O)CNC(=O)[C@@H](NC(=O)[C@H](CCCCN)NC(=O)[C@H](CCCNC(=N)N)NC(=O)[C@@H](NC(=O)[C@H](Cc1ccc(O)cc1)NC(=O)[C@H](CCCNC(=N)N)NC(=O)[C@H](CCCNC(=N)N)NC(=O)[C@H](CC(C)C)NC(=O)[C@H](CCC(=O)O)NC(=O)[C@H](CCCCN)NC(=O)[C@H](C)NC(=O)[C@@H](NC(=O)[C@H](CCCNC(=N)N)NC(=O)[C@H](CC(N)=O)NC(=O)[C@@H](NC(=O)CNC(=O)[C@H](C)N)[C@@H](C)O)[C@@H](C)CC)[C@@H](C)CC)C(C)C)C(=O)N[C@@H](C)C(=O)N[C@@H](CCCNC(=N)N)C(=O)N[C@@H](CCCCN)C(=O)N[C@@H](CCCCN)C(=O)N[C@@H](Cc1c[nH]c2ccccc12)C(=O)O [Syn-sordellicin-88] (H-AGTNRIAKELRRYIRKVGRIARKKW-OH; N-terminus and C-terminus assumed),–,–,–,1,–,–,1,1,11.7,64,64,16,16,1,≥ 64,–,–
CC[C@H](C)[C@H](NC(=O)[C@H](CCCCN)NC(=O)CNC(=O)[C@H](Cc1ccccc1)NC(=O)[C@H](CCCCN)NC(=O)[C@H](CCCNC(=N)N)NC(=O)[C@H](CC(C)C)NC(=O)[C@H](Cc1ccc(O)cc1)NC(=O)[C@H](CCC(=O)O)NC(=O)[C@H](CC(C)C)NC(=O)[C@H](CC(C)C)NC(=O)[C@H](CCC(=O)O)NC(=O)[C@H](CCCCN)NC(=O)[C@@H](NC(=O)[C@H](CC(C)C)NC(=O)[C@H](CCCNC(=N)N)NC(=O)[C@H](CC(N)=O)NC(=O)[C@H](C)NC(=O)[C@H](CCCCN)NC(=O)[C@H](C)N)[C@@H](C)O)C(=O)N[C@@H](C)C(=O)N[C@@H](CCCNC(=N)N)C(=O)N[C@@H](CCCCN)C(=O)N[C@@H](C)C(=O)N[C@@H](Cc1c[nH]c2ccccc12)C(=O)O [Syn-xiamencin-96] (H-AKANRLTKELLEYLRKFGKIARKAW-OH; N-terminus and C-terminus assumed),–,–,–,2,–,–,4,4,20.0,8,8,16,16,2,–,–,–
